According to US6489312B1, “Pharmaceutical formulations comprising aminoalkyl phosphorothioates” (MedImmune Oncology, Inc., priority 1999, dated 2002):

Experiments:
[1] = tested on: radiation-induced mucositis; experiment: Radiation-induced mucositis in the lip of irradiated mice, total mucositis score (erythema + edema, Parkins scoring); assay type: in vivo, C57BL/6 female mice; design: key to Total Mucositis Score After 11 days: combined erythema + edema score (Parkins), maximum 7; conditions: for Score (total mucositis score): amifostine 50 mg/ml, 200 mg/Kg s.c. 30 minutes before 16.5 Gy irradiation, maximum score 7
Source text: One of the major limiting acute toxicities associated with radiotherapy is radiation-induced mucositis. The ability to reduce the duration and severity of acute mucosal reactions is of particular importance in the radiotherapy and/or chemotherapy of head and neck cancer. Therefore, the radioprotective effects of amifostine were examined in an experimental model of mucositis. In particular, the study compared the radioprotective effects of amifostine by subcutaneous (s.c.) and intraperitoneal (i.p.) administration.
(§1) C57BL/6 female mice of 8-10 weeks old were used and fed with semi liquid food. The mice were randomly divided into treatment groups of five mice each. The treatment groups were, for example,
(§2) Unanesthetized mice were maintained in supine position and irradiated exclusively on the tip of their mouth. […] Irradiation was performed with a RT 250 Philips apparatus delivering 1.98 Gy per min. (200 Kv, 20 mA, filter of 0.2 mm de Cu). During irradiation, a constant normobaric air renewal was maintained. The effects of amifostine were evaluated using a single dose of 16.5 Gy.
(§3) Amifostine was dissolved in appropriate diluent to achieve a final concentration of 50 mg/ml immediately before injections. Amifostine was dissolved in 0.075% sodium deoxycholate to achieve a final concentration of 50 mg/ml. Amifostine was dissolved in a mixture of 2% EDTA and 2% sorbitol to achieve a final concentration of 50 mg/ml. Amifostine was dissolved in 0.2% EDTA to achieve a final concentration of 50 mg/ml. Subcutaneous injections (200 mg/Kg) were conducted 30 minutes before irradiation. Where a control group was used, a first control group was injected with the saline solution and subsequently irradiated, and a second control group was injected with the saline solution, but was not irradiated.
(§4) The effects of irradiation on lip mucosa were evaluated using the scoring system described by Parkins et al. (1983, Radiother. Oncol. 1:159-165). Body weight of the treated mice were scored periodically after treatment. Reduction in body weight was used as an objective indication of the severity of mucositis induced by irradiation, presumably resulting from the inability of the animals to eat. In this model, the acute reactions peaked on day 10 to 11 after irradiation.
Other symptoms of mucositis such as mucosal erythema and edema were also recorded. These symptoms developed more slowly than weight loss following irradiation. Mucosal erythema and edema were scored separately, and could be analyzed as separate scores or as a combined score yielding a maximum score of 7. Mouse lip mucosal erythema was scored according to Table 1.
Mucosal edema (swelling) of the lips was scored according to table 2.
(§5) These examples describe pharmaceutical formulations of the invention comprising amifostine in combination with surfactants and/or hydrotropes and/or chelating agents. The pharmaceutical formulations were administered, and the effects of irradiation on lip mucosa evaluated using the methods described in the first Example above.

[2] = Body weight of irradiated mice as objective indicator of mucositis; assay type: in vivo, C57BL/6 female mice; conditions: for Weight: amifostine 50 mg/ml, 200 mg/Kg s.c. 30 minutes before 16.5 Gy irradiation
Experimental: as §1, §2, §3, §4, §5

For `NCCCNCCS` [WR-1065, S-2-(3-aminopropylamino)ethanethiol], the “Total Mucositis Score After 11 days” value ([1]; after 11 days, irradiated mice, methods of Example 1) was 5.1 and the “% Weight Change After 6 Days” value ([2]; after 6 days, irradiated mice, methods of Example 1) was −8.7%.

In the case of `NCCCNCCSP(=O)(O)O` [Amifostine, S-2-(3-aminopropylamino)ethyl dihydrogen phosphorothioate], the “Score (total mucositis score)” value ([1]; Day 0) is reported as 0.0, the “Score (total mucositis score)” value ([1]; Day 6) is reported as 0.5 and the “Score (total mucositis score)” value ([1]; Day 10) is reported as 1.7. For the same compound, the “Score (total mucositis score)” value ([1]; Day 11) was 1.8, the “Score (total mucositis score)” value ([1]; Day 12) was 1.3 and the “Score (total mucositis score)” value ([1]; Day 18) was 0.4. The “Score (total mucositis score)” value ([1]; Day 28) was 0.0, the Weight ([2]; Day 0) was 16.4 g and the Weight ([2]; Day 6) was 15.8 g. The Weight ([2]; Day 10) was 17.4 g, the Weight ([2]; Day 11) was 17.8 g and the Weight ([2]; Day 12) was 17.6 g. The Weight ([2]; Day 18) was 18.4 g, the Weight ([2]; Day 28) was 19.5 g and the “Effect on body weight reduction after irradiation (in words)” value ([2]; s.c. administration before irradiation, compared with other groups) was “Less severe reductions in body weight”.
